For the experiment, the target named is T1, human FSH receptor (Homo sapiens, UniProt P23945).
T1 construct: expressed in transfected cells; host or cells: CHO cells, cotransfected with a CRE/promotor firefly luciferase reporter
T1 sequence (P23945 18-695): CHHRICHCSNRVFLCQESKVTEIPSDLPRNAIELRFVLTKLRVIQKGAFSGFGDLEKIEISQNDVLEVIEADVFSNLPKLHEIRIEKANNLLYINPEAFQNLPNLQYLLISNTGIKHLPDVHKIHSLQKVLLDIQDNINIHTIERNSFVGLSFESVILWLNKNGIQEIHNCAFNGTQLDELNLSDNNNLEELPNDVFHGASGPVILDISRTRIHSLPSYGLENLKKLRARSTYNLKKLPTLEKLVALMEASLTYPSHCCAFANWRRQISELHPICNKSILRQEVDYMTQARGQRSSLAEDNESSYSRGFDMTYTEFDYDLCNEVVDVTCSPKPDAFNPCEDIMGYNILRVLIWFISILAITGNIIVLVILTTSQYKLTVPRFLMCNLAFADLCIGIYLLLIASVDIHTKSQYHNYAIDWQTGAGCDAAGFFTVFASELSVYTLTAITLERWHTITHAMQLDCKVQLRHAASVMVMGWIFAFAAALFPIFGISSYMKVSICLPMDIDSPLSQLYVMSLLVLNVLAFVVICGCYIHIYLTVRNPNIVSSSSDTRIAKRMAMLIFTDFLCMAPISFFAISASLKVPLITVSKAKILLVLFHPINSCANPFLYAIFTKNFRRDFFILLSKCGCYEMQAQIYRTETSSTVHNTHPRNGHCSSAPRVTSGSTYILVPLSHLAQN
Description: Antagonistic activity at the human FSH receptor expressed in CHO cells (CRE-luciferase reporter). The following applies: CHO cells stably transfected with human FSH receptor and CRE/firefly luciferase reporter; 4 hours incubation; read-out: pIC50 (negative logarithm of the IC50 value) (converted). In kind it is cell-based. The method, then:
The FSHR antagonists of the invention have pIC50 values higher than 6 in said assay. The preferred compounds of the invention have pIC50 values higher than 8.
Antagonistic activity of the compounds at the human FSH receptor was determined in Chinese Hamster Ovary (CHO) cells stably transfected with the human FSH receptor and cotransfected with a cAMP responsive element (CRE)/promotor directing the expression of a firefly luciferase reporter gene. […] The cells (7,500 cells/well of a 384 well plate) were incubated in Dulbecco′ minimal essential F12 modified medium (Invitrogen), supplemented with 1 μg/ml bovine insulin, 5 μg/ml human apo-transferrin, 100 U/ml penicillin G and 100 μg/ml streptomycin with the test compounds (concentration between 0.316 nM and 10.0 μM) in duplicate together with […] (which, at this concentration in the absence of test compound, induces 80% of the maximal luciferase stimulation) in a humidified atmosphere (95%) at 5-7% CO2 and 37° C. The final concentration of DMSO was 1%. After 4 hours of incubation, plates were allowed to adjust to room temperature for 1 hour. Then, SteadyLite (Perkin Elmer) solution was added to the wells and cells were allowed to lyse for at least 1 hour at room temperature. Subsequently, luciferase activity was measured in a luminescence counter. The signal is expressed as counts per second (cps). The IC50 (concentration of test compound causing half-maximal (50%) inhibition of the maximally attainable inhibition of the luciferase stimulation by the compound) and efficacy of the compounds were determined using the software program MathIQ (version 2.3, ID Business Solutions Limited).
A general note: A reporter such as luciferase makes a cellular process visible.

As for `COc1cc(OCc2ccccc2)cc(C(=O)NCC2CCN(c3ccnc(-c4cccc(-n5cccn5)c4)n3)CC2)c1` [Example 11, N-((1-(2-(3-(1H-pyrazol-1-yl)phenyl)pyrimidin-4-yl)piperidin-4-yl)methyl)-3-(benzoxy)-5-methoxybenzamide], the IC50 – broadly, the concentration that gives 50% inhibition – was 10 to 100 nM.
In the case of `COc1cc(OCc2ccccc2)cc(C(=O)NCC2CCN(c3ncnc(-c4cccc(-c5ccccn5)c4)n3)CC2)c1` [Example 12B, 3-(benzoxy)-5-methoxy-N-((1-(4-(3-(pyridin-2-yl)phenyl)-1,3,5-triazin-2-yl)piperidin-4-yl)methyl)benzamide], the half-maximal inhibitory concentration (IC50) was 10 to 100 nM.
`COc1cc(OCc2ccc(F)cc2)cc(C(=O)NCC2CCN(c3ccnc(-c4cccc(-n5cccn5)c4)n3)CC2)c1` [Example 14, N-((1-(2-(3-(1H-pyrazol-1-yl)phenyl)pyrimidin-4-yl)piperidin-4-yl)methyl)-3-(4-fluorobenzoxy)-5-methoxybenzamide]: the 50% inhibitory concentration (IC50) is 10 to 100 nM.
Turning to `COc1cc(OCC2CC2)cc(C(=O)NCC2CCN(c3ccnc(-c4cccc(-n5cccn5)c4)n3)CC2)c1` [Example 15A, N-((1-(2-(3-(1H-pyrazol-1-yl)phenyl)pyrimidin-4-yl)piperidin-4-yl)methyl)-3-(cyclopropylmethoxy)-5-methoxybenzamide], the IC50 is below 10 nM.
In the case of `COc1cc(OCc2cc(C)on2)cc(C(=O)NCC2CCN(c3ccnc(-c4cccc(-n5cccn5)c4)n3)CC2)c1` [Example 15B, N-((1-(2-(3-(1H-pyrazol-1-yl)phenyl)pyrimidin-4-yl)piperidin-4-yl)methyl)-3-methoxy-5-((5-methylisoxazol-3-yl)methoxy)benzamide] it was below 10 nM; in that of `COc1cc(OCCCO)cc(C(=O)NCC2CCN(c3ccnc(-c4cccc(-n5cccn5)c4)n3)CC2)c1` [Example 15C, N-((1-(2-(3-(1H-pyrazol-1-yl)phenyl)pyrimidin-4-yl)piperidin-4-yl)methyl)-3-(3-hydroxypropoxy)-5-methoxybenzamide], 10 to 100 nM; in that of `COCCOc1cc(OC)cc(C(=O)NCC2CCN(c3ccnc(-c4cccc(-n5cccn5)c4)n3)CC2)c1` [Example 15D, N-((1-(2-(3-(1H-pyrazol-1-yl)phenyl)pyrimidin-4-yl)piperidin-4-yl)methyl)-3-methoxy-5-(2-methoxyethoxy)benzamide], 10 to 100 nM.
Next, `COc1cc(OCC2CC2)cc(C(=O)NCC2CCN(c3ncnc(-c4cccc(-n5cccn5)c4)n3)CC2)c1` [Example 17A, N-((1-(4-(3-(1H-pyrazol-1-yl)phenyl)-1,3,5-triazin-2-yl)piperidin-4-yl)methyl)-3-(cyclopropylmethoxy)-5-methoxybenzamide]: below 10 nM; `COc1cc(OCC2CCOCC2)cc(C(=O)NCC2CCN(c3ncnc(-c4cccc(-n5cccn5)c4)n3)CC2)c1` [Example 17B, N-((1-(4-(3-(1H-pyrazol-1-yl)phenyl)-1,3,5-triazin-2-yl)piperidin-4-yl)methyl)-3-methoxy-5-((tetrahydro-2H-pyran-4-yl)methoxy)benzamide]: 10 to 100 nM.
Regarding `COc1cc(OCc2ccoc2)cc(C(=O)NCC2CCN(c3ncnc(-c4cccc(-n5cccn5)c4)n3)CC2)c1` [Example 17C], the 50% inhibitory concentration (IC50) was 10 to 100 nM.
On to `CNC(=O)COc1cc(OC)cc(C(=O)NCC2CCN(c3ncnc(-c4cccc(-n5cccn5)c4)n3)CC2)c1` [Example 17D, N-((1-(4-(3-(1H-pyrazol-1-yl)phenyl)-1,3,5-triazin-2-yl)piperidin-4-yl)methyl)-3-methoxy-5-(2-(methylamino)-2-oxoethoxy)benzamide], for which the concentration for half-maximal inhibition (IC50) is 10 to 100 nM.
`COc1cc(OC)cc(C(=O)NCC2CCN(c3ccnc(-c4cccc(-c5ccn[nH]5)c4)n3)CC2)c1` [Example 18, N-((1-(2-(3-(1H-pyrazol-5-yl)phenyl)pyrimidin-4-yl)piperidin-4-yl)methyl)-3,5-dimethoxybenzamide]: the IC50 was 10 to 100 nM.
Consider `COc1cc(OCC2CC2)cc(C(=O)NCC2CCN(c3nc(-c4cccc(C#N)c4)ncc3F)CC2)c1` [Example 19B, N-((1-(2-(3-cyanophenyl)-5-fluoropyrimidin-4-yl)piperidin-4-yl)methyl)-3-(cyclopropylmethoxy)-5-methoxybenzamide], for which the 50% inhibitory concentration (IC50) was 10 to 100 nM.
For `COc1cc(OCC2CC2)cc(C(=O)NCC2CCN(c3nc(-c4cccc(-c5ccn[nH]5)c4)ncc3F)CC2)c1` [Example 19C, N-((1-(2-(3-(1H-pyrazol-5-yl)phenyl)-5-fluoropyrimidin-4-yl)piperidin-4-yl)methyl)-3-(cyclopropylmethoxy)-5-methoxybenzamide], the IC50 is below 10 nM.
On to `COc1cc(OCC2CC2)cc(C(=O)NCC2CCN(c3ccnc(-c4ccc5[nH]ncc5c4)n3)CC2)c1` [Example 19E, N-((1-(2-(1H-indazol-5-yl)pyrimidin-4-yl)piperidin-4-yl)methyl)-3-(cyclopropylmethoxy)-5-methoxybenzamide], for which the IC50 was 10 to 100 nM.
In the case of `COC(=O)c1cnc(-c2cccc(-n3cccn3)c2)nc1N1CCC(CNC(=O)c2cc(OC)cc(OC)c2)CC1` [Example 21B, methyl 2-(3-(1H-pyrazol-1-yl)phenyl)-4-(4-((3,5-dimethoxybenzamido)methyl)piperidin-1-yl)pyrimidine-5-carboxylate], the IC50 was 10 to 100 nM.
As to `COc1cc(OCCO)cc(C(=O)NCC2CCN(c3nc(-c4cccc(-c5cc[nH]n5)c4)ncc3F)CC2)c1` [Example 22, N-((1-(2-(3-(1H-pyrazol-3-yl)phenyl)-5-fluoropyrimidin-4-yl)piperidin-4-yl)methyl)-3-(2-hydroxyethoxy)-5-methoxybenzamide], the IC50 is 10 to 100 nM.
In the case of `COCCCOc1cc(OC)cc(C(=O)NCC2CCN(c3nc(-c4cccc(-c5cc[nH]n5)c4)ncc3F)CC2)c1` [Example 23A, N-((1-(2-(3-(1H-pyrazol-3-yl)phenyl)-5-fluoropyrimidin-4-yl)piperidin-4-yl)methyl)-3-methoxy-5-(3-methoxypropoxy)benzamide] it was 10 to 100 nM.
Consider `C#CCOc1cc(OC)cc(C(=O)NCC2CCN(c3nc(-c4cccc(-c5cc[nH]n5)c4)ncc3F)CC2)c1` [Example 23C, N-((1-(2-(3-(1H-pyrazol-3-yl)phenyl)-5-fluoropyrimidin-4-yl)piperidin-4-yl)methyl)-3-methoxy-5-(prop-2-ynoxy)benzamide], for which the IC50 was 10 to 100 nM.
`COc1cc(OCC2CC2)cc(C(=O)NCC2CCN(c3nc(-c4cccc(-n5ccnn5)c4)ncc3F)CC2)c1` [Example 28C, N-((1-(2-(3-(1H-1,2,3-triazol-1-yl)phenyl)-5-fluoropyrimidin-4-yl)piperidin-4-yl)methyl)-3-(cyclopropylmethoxy)-5-methoxybenzamide]: the IC50 is 10 to 100 nM.
As for `COc1cc(OCC(F)(F)F)cc(C(=O)NCC2CCN(c3ncnc(-c4cccc(C#N)c4)n3)CC2)c1` [Example 30C, N-((1-(4-(3-cyanophenyl)-1,3,5-triazin-2-yl)piperidin-4-yl)methyl)-3-methoxy-5-(2,2,2-trifluoroethoxy)benzamide], the IC50 was 10 to 100 nM.
For `COc1cc(OCC(F)(F)F)cc(C(=O)NCC2CCN(c3ncnc(-c4cccc(C#N)c4)n3)CC2)c1` [Example 30D, N-((1-(4-(3-cyanophenyl)-1,3,5-triazin-2-yl)piperidin-4-yl)methyl)-3-methoxy-5-(2,2,2-trifluoroethoxy)benzamide], the IC50 was below 10 nM.
For `COc1cc(OCC2CC2)cc(C(=O)NCC2CCN(c3ccnc(-c4cccc(C(=O)Nc5ccn(C)n5)c4)n3)CC2)c1` [Example 32C, 3-(cyclopropylmethoxy)-5-methoxy-N-((1-(2-(3-(1-methyl-1H-pyrazol-3-ylcarbamoyl)phenyl)pyrimidin-4-yl)piperidin-4-yl)methyl)benzamide], the IC50 is below 10 nM.
Next, `COc1cc(OCC2CC2)cc(C(=O)NCC2CCN(c3ccnc(-c4cccc(C(=O)NC(C)(C)C)c4)n3)CC2)c1` [Example 32F, N-((1-(2-(3-(tert-butylcarbamoyl)phenyl)pyrimidin-4-yl)piperidin-4-yl)methyl)-3-(cyclopropylmethoxy)-5-methoxybenzamide]: 10 to 100 nM.
